Paper PMC4798913 (ACS chemical biology, 2015)

What was measured:
PRMT7 = biological target: T1, PRMT7 (Homo sapiens, UniProt Q9NVM4); assay: PRMT biochemical scintillation proximity assay; conditions: for inhibition of type III PRMT (PRMT7): concentration not given
T1 sequence (Q9NVM4 1-692): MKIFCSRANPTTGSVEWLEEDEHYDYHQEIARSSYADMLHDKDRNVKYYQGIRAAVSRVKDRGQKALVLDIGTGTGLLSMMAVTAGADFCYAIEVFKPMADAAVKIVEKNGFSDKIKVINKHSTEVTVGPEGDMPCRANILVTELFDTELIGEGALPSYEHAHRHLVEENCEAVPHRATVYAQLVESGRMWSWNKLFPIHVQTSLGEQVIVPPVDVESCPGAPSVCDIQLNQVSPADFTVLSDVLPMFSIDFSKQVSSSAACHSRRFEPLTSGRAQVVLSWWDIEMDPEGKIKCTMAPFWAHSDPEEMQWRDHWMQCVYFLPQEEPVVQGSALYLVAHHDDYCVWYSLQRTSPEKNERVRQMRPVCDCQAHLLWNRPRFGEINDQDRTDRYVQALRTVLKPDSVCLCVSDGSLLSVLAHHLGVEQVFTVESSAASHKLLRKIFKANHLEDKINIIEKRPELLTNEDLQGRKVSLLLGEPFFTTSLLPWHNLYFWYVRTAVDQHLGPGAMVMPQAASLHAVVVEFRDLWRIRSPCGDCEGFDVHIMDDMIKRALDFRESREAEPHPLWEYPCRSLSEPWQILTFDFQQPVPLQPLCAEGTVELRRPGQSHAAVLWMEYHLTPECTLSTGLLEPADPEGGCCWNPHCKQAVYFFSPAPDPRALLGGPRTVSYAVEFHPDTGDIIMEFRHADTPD

PRMT9 = biological target: T2, PRMT9 (Homo sapiens, UniProt Q6P2P2); assay: PRMT biochemical scintillation proximity assay; conditions: for inhibition of type II PRMT (PRMT9): concentration not given
T2 sequence (Q6P2P2 1-845): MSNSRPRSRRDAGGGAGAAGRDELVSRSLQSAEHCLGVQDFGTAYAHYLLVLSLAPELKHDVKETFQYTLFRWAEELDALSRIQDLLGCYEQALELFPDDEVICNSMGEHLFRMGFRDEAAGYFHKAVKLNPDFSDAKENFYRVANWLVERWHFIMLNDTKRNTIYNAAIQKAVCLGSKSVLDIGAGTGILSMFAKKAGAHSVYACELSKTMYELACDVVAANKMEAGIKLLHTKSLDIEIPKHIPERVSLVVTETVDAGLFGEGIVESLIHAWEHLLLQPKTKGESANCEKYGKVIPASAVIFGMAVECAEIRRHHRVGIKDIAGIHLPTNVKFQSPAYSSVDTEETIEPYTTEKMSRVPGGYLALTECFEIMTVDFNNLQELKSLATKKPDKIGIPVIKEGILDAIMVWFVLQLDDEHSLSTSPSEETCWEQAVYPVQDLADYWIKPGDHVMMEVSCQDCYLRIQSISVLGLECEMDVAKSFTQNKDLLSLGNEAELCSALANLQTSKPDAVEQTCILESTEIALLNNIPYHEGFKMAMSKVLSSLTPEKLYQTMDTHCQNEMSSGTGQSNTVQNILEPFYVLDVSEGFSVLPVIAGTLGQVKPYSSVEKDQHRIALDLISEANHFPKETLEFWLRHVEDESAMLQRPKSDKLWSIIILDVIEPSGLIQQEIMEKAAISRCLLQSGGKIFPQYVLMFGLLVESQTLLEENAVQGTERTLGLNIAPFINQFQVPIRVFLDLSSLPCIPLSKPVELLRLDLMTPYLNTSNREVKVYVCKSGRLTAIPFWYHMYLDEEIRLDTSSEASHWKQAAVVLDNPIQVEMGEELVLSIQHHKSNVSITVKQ

PRMT5 = PRMT5 (Homo sapiens, UniProt O14744); assay: PRMT biochemical scintillation proximity assay; conditions: for inhibition of type II PRMT (PRMT5): concentration not given
PRMT3 = PRMT3 (Homo sapiens, UniProt O60678); assay: PRMT biochemical scintillation proximity assay; conditions: for IC50: read-out: IC50 PRMT3, substrate at Km, triplicate, Mean ± SD, NI: no inhibition
PRMT4 = biological target: T3, PRMT4 (Homo sapiens, UniProt Q86X55); assay: PRMT biochemical scintillation proximity assay; conditions: read-out: IC50 PRMT4; substrate at Km; triplicate, Mean ± SD; NI: no inhibition
T3 sequence (Q86X55 1-608): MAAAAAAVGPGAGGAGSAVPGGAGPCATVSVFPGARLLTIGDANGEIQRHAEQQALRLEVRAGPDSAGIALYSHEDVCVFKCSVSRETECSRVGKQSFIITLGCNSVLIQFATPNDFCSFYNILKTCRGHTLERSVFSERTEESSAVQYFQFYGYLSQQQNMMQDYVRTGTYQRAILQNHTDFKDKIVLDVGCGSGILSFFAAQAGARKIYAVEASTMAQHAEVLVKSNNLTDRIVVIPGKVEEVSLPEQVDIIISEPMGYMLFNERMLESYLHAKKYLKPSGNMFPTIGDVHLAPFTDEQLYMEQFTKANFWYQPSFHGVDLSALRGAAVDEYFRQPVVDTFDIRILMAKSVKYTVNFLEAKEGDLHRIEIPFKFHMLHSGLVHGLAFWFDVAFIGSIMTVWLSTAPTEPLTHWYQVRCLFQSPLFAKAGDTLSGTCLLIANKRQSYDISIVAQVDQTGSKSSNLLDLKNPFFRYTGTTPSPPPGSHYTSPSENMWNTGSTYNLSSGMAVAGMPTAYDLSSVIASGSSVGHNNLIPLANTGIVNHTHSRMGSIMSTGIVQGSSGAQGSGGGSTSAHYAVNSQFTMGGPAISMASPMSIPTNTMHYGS

PRMT1 [1] = biological target: T4, PRMT1 (Homo sapiens, UniProt Q99873); assay: PRMT biochemical scintillation proximity assay; conditions: read-out: IC50 PRMT1; substrate at Km; triplicate, Mean ± SD; NI: no inhibition
PRMT1 [2] = biological target: T4, PRMT1; assay: Cellular PRMT1 assay; format: cell-based; conditions: MCF7 cells, 48 h
MCF7 cells = assay: Global arginine methylation Western blot; format: cell-based; conditions: two days (48 h)
HEK293 cells [3] = assay: Cell growth assay; format: cell-based; conditions: 1 μM, 4-day and long-term (10 days) treatment
HEK293 cells [4] = assay: Global arginine methylation Western blot; conditions: two days
[5] = test system: 25 PKMTs and DNMTs, and 3 histone lysine demethylases; assay: Selectivity panel of methyltransferases and demethylases; format: biochemical; conditions: up to 10 μM (tested at 1 μM and 10 μM)
[6] = test system: eight different cell lines; assay: Cell growth assay; format: cell-based; conditions: 96 h treatment
[7] = test system: 9 methyllysine or methylarginine reader proteins; assay: DSF or DSLS binding to reader proteins
PRMT6 = PRMT6 (Homo sapiens, UniProt Q96LA8); conditions: 100 μM SAM; PRMT6 alone Tm = 52 °C
Chain of PRMT6 (Q96LA8 whole entry): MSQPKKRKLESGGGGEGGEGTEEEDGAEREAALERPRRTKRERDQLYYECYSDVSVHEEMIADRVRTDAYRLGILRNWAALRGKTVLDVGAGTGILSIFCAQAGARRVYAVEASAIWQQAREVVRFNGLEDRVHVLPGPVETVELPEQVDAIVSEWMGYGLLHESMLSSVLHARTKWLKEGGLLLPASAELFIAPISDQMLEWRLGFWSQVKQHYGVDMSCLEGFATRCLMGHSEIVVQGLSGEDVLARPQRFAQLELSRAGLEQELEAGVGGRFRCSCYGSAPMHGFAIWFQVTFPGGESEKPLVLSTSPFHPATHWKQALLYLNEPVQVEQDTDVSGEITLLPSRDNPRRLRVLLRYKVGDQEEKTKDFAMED

Chain of PRMT3 (O60678 whole entry): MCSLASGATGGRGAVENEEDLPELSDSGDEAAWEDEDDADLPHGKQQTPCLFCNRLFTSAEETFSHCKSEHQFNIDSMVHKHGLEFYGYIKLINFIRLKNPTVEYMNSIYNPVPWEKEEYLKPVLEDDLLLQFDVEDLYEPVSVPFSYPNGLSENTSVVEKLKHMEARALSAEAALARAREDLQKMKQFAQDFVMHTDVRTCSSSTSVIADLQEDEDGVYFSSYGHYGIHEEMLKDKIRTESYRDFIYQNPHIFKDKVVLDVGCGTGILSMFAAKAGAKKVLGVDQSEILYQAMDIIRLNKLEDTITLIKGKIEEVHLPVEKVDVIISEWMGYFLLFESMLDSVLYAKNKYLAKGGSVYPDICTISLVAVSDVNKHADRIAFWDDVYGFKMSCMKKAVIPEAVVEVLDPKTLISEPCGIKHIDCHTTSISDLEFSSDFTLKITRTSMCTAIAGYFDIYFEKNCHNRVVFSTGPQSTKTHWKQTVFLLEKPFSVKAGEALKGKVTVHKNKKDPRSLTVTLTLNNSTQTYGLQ
T4 sequence (Q99873 whole entry): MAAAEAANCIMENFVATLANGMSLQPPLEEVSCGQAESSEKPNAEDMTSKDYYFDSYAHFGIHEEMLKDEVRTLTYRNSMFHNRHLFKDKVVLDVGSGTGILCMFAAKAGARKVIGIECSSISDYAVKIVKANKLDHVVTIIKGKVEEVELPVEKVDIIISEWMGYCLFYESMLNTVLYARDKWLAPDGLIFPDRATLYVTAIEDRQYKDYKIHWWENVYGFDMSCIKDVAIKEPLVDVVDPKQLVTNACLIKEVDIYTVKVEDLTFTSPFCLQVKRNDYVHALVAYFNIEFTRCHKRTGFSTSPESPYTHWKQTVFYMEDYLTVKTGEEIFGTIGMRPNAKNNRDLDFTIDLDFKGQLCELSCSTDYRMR
Chain of PRMT5 (O14744 whole entry): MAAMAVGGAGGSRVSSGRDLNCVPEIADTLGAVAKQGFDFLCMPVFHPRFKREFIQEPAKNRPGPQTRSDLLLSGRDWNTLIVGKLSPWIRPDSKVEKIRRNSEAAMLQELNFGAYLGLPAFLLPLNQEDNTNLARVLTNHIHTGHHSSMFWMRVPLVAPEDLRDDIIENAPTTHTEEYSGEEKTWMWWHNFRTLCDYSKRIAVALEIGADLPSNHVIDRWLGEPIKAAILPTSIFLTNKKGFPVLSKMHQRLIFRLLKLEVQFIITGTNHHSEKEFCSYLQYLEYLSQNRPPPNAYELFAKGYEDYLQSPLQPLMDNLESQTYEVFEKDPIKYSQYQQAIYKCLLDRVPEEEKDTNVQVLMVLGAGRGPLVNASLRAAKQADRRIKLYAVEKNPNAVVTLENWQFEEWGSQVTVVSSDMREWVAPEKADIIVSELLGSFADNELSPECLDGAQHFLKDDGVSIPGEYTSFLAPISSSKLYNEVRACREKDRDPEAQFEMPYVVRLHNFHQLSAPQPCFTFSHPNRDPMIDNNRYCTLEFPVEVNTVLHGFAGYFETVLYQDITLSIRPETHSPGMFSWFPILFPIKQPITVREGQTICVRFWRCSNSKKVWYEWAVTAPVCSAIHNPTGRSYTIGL
Chain of PRMT5 (Q9BQA1 whole entry partner): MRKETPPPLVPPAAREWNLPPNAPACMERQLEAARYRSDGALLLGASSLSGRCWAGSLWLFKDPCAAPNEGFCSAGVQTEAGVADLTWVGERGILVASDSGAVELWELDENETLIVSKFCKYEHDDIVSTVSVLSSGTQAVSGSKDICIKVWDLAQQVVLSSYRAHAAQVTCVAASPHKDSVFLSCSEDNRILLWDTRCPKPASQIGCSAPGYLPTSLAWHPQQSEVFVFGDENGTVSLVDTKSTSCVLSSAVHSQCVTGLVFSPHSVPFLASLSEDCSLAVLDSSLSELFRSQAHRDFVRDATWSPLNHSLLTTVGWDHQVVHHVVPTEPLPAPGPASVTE

SMILES | IC50 (PRMT3) [µM] | IC50 (PRMT4) [µM] | IC50 (PRMT1 [1]) [µM] | effect on cellular levels of H4R3me2a (PRMT1 [2]) | global levels of arginine asymmetric dimethylation (Rme2a) (MCF7 cells) | global levels of arginine monomethylation (Rme1) (MCF7 cells) | global levels of arginine symmetric dimethylation (Rme2s) (MCF7 cells) | further results
CN(CCN)Cc1n[nH]nc1-c1cccc(C(F)(F)F)c1 [Compound 1] | – | – | – | – | – | – | – | inhibition of type III PRMT (PRMT7) (PRMT7): did not inhibit; inhibition of type II PRMT (PRMT9) (PRMT9): did not inhibit; inhibition of type II PRMT (PRMT5) (PRMT5): did not inhibit
CN(CCN)Cc1c[nH]cc1-c1cccc(C(F)(F)F)c1 [Compound 2] | – | – | – | – | – | – | – | inhibition of type III PRMT (PRMT7) (PRMT7): did not inhibit; inhibition of type II PRMT (PRMT9) (PRMT9): did not inhibit; inhibition of type II PRMT (PRMT5) (PRMT5): did not inhibit
CC(C)Oc1ccc(-c2c[nH]cc2CN(C)CC(N)=O)cc1 [Compound 5] | > 10 | > 10 | > 10 | did not decrease | did not change | did not change | did not change | –
CC(C)Oc1ccc(-c2c[nH]cc2C(=O)N(C)CCN)cc1 [Compound 6] | > 10 | > 10 | > 10 | did not decrease | did not change | did not change | did not change | –
CC(C)Oc1ccc(-c2c[nH]cc2CN(C)CCN)cc1 [MS023] | – | – | – | – | significant decrease | increase | increase | pattern of inhibition (MOA) for PRMT3 (PRMT3; IC50 at different SAM and peptide concentrations): noncompetitive with the peptide substrate but uncompetitive with the cofactor SAM; effect on cell growth (HEK293 cells [3]): greatly affecting cell growth; global levels of arginine asymmetric dimethylation (Rme2a) (HEK293 cells [4]): significant decrease; global levels of arginine monomethylation (Rme1) (HEK293 cells [4]): increase; global levels of arginine symmetric dimethylation (Rme2s) (HEK293 cells [4]): increase; inhibition of 25 PKMTs and DNMTs and 3 histone lysine demethylases [5]: did not inhibit; effect on cell growth ([6]; concentrations up to 1 μM, all lines except HEK293): did not significantly impact cell growth; effect on cell growth ([6]; higher concentrations (e.g., 10 μM, 50 μM)): decreased cell growth in most of tested cell lines; inhibition of PRMT7 (type III) (PRMT7; concentrations up to 10 μM): did not inhibit; inhibition of PRMT9 (type II) (PRMT9; concentrations up to 10 μM): did not inhibit; inhibition of PRMT5 (type II) (PRMT5; concentrations up to 10 μM): did not inhibit; binding to 9 methyllysine or methylarginine reader proteins [7]: did not show binding
CC(C)Oc1ccc(-c2c[nH]cc2CN(C)CCO)cc1 [MS094] | > 10 | > 10 | > 10 | did not decrease | did not change | did not change | did not change | –
C[S+](CC[C@H](N)C(=O)O)C[C@H]1O[C@@H](n2cnc3c(N)ncnc32)[C@H](O)[C@@H]1O (stereo partly drawn) [SAM, S-5′-adenosyl-L-methionine] | – | – | – | – | – | – | – | ΔTm PRMT6 (DSF) (PRMT6): 1.6 °C
